Patent US7326721B2 (Hypnion, Inc., priority 2003, dated 2008)
Several values for one entry are separate records, joined by “and”; a condition that tells them apart may be missing. Identical values can stand only once.

How the values were obtained:
Adenosine, Non-selective = assay: Table 12 panel: Adenosine, Non-selective; assay type: binding; conditions: 1.0E−6, average N=2
Text: (§1) The percentage inhibition (average; N=2) for these receptors is shown below in Table 12.
(§2) Values in Table 12 are expressed as percentage inhibition of specific binding, and these values represent the average of replicate tubes at each of the concentrations tested.

[1] = test system: T1, Adrenergic, Alpha 1, Non-selective; assay: Table 12 panel: Adrenergic, Alpha 1; assay type: binding; conditions: Adrenergic, Alpha 1; 1.0E−6; average N=2
T1 construct: other: Adrenergic, Alpha 1; 1.0E−6; average N=2

[2] = molecular target: Glutamate, NMDA, Glycine (Stry-insens Site) (Homo sapiens, UniProt Q05586); assay: Table 12 panel: Glutamate, NMDA, Glycine; conditions: 1.0E−6, average N=2, read-out: percentage inhibition of specific binding
Text: as §1, §2

Sodium, Site 2 = assay: Table 12 panel: Sodium, Site 2; assay type: binding; conditions: 1.0E−6, average N=2
Text: as §1, §2

Angiotensin II, AT2 = Angiotensin II, AT2 (Homo sapiens, UniProt P50052); assay: Table 12 panel: Angiotensin II, AT2; conditions: 1.0E−6, average N=2, read-out: percentage inhibition of specific binding
Chain of Angiotensin II, AT2 (P50052 whole entry): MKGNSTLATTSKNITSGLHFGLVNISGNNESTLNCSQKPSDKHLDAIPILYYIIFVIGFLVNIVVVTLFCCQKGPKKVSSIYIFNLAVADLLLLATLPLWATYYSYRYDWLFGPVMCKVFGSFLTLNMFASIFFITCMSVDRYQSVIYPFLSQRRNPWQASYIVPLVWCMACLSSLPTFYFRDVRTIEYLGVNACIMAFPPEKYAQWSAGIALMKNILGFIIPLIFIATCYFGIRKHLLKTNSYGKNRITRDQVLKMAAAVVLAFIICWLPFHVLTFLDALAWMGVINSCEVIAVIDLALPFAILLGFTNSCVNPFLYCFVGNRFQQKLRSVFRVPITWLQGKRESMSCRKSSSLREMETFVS
Text: as §1, §2

[3] = molecular target: Cholecystokinin, CCK2 (CCKB) (Homo sapiens, UniProt P32239); assay: Table 12 panel: CCK2; conditions: 1.0E−6, average N=2, read-out: percentage inhibition of specific binding
Chain of Cholecystokinin, CCK2 (CCKB) (P32239 whole entry): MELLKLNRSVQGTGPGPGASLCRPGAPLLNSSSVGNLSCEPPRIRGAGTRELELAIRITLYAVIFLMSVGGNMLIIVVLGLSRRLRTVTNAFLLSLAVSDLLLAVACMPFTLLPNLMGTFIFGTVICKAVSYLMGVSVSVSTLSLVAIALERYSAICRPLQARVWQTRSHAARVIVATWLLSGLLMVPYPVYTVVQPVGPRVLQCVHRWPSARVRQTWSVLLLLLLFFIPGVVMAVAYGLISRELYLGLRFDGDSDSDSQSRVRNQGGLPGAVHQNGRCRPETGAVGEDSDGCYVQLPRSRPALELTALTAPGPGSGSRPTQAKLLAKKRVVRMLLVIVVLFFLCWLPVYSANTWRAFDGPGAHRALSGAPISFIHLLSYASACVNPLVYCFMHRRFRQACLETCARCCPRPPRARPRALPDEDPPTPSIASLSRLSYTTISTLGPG
Text: as §1, §2

hERG = hERG (Homo sapiens, UniProt Q12809); assay: Table 12 panel: hERG binding; design: expressed in transfected cells; conditions: human recombinant hERG potassium channel (binding assay), I[Kr] (hERG) (hr), 1.0E−6, average N=2, read-out: percentage inhibition of specific binding
Chain of hERG (Q12809 whole entry): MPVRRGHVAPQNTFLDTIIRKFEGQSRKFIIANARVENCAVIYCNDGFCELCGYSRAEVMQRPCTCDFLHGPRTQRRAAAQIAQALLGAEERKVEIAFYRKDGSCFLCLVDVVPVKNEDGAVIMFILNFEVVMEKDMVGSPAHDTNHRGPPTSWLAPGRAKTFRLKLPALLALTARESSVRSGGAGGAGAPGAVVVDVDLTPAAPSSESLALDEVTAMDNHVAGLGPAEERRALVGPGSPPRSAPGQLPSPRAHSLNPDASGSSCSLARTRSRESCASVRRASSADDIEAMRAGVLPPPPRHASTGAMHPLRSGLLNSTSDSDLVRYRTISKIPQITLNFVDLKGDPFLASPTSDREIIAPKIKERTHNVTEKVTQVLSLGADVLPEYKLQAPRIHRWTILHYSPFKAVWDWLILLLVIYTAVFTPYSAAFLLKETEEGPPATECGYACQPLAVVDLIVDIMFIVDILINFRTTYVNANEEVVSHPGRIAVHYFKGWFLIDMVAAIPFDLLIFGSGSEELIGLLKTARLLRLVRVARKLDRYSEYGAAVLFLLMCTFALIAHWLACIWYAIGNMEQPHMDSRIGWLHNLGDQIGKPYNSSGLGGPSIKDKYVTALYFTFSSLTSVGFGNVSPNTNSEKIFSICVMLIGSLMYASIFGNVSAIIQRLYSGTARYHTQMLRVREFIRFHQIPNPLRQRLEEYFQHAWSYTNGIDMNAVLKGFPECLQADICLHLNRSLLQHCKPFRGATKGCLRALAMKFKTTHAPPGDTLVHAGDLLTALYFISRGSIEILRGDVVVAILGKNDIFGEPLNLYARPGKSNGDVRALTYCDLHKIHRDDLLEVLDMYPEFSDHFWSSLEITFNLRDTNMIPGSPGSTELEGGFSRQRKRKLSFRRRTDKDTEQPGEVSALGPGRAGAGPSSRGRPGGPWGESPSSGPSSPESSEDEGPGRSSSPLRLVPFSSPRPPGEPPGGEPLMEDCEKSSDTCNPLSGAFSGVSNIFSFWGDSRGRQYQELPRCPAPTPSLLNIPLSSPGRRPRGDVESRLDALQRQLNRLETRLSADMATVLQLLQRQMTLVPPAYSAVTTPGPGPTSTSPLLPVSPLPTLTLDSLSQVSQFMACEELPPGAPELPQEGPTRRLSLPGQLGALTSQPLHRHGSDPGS
Text: as §1, §2

[4] = Plasma pharmacokinetics in cynomolgus monkeys; assay type: in vivo; conditions: cynomolgus monkey, 3 mg/kg
Text: The following pharmacokinetic parameters are computed from the individual plasma concentrations of the modified antihistamine compound using a noncompartmental approach and appropriate validated pharmacokinetic software (e.g., WinNonlin Professional). Concentration values reported as BLQ are set to zero. If concentration data are available, interim calculations are done (non-QC.d data) between periods if possible.
Dose proportionality following study medication is explored by analyzing natural log-transformed pharmacokinetic variables AUC(0-t), AUC(0-inf), and Cmax with a linear model including the natural log-transformed dose as covariates. […] The following parameters were estimated: • Cmax Maximum plasma concentration. • Tmax Time to maximum concentration. • Cmax and Tmax were reported directly from the concentration-time data. • AUC0-T Area under the plasma concentration-time curve from time […] to the last time point with measurable concentrations, estimated bylinear trapezoidal rule. • AUC0-00 Area under the plasma concentration-time curve extrapolated to infinity, calculated using the formula: AUC0-00=AUC0-1+C0/λ0 • Where Ct is the last measurable concentration in plasma and λz is the terminal phase elimination rate constant estimated using log-linear regression during the terminal elimination phase. […]

[5] = Protein binding in rat plasma; assay type: in vitro ADME
Experimental: HY2901 was administered to rats, dogs, and cynomolgus monkeys at a dose of 3 mg/kg orally and intravenously. Plasma samples were collected from all species for pharmacokinetic analysis. […] HY2901 is 75% protein bound in rat plasma and 60% protein bound in human plasma.

Crl: CD(SD)IGS BR rats = assay: Acute rat study (toxicity and MTD, oral gavage, 5 days); assay type: in vivo
Experimental: The purpose of this study was to evaluate the toxicity and maximum tolerated dose (MTD) of the test articles when given via oral gavage to rats. Male Crl: CD®(SD)IGS BR rats (3/group) were assigned to 5 groups. At initiation of dosing, animals were approximately 7 weeks old with body weights ranging from 172 to 206 g. Each group received either 50, 100, 150, 200, or 250 mg/kg of HY2901 once daily for 5 days. All surviving animals were sacrificed on Day 6. Assessment of toxicity was based on mortality, clinical observations, and body weight data.

Wistar rats = assay: Acetic acid-induced abdominal spasm test in the rat; assay type: in vivo
Experimental: The objective of this example was to determine the analgesic activity of HY-2901 (Also referred to herein as Compound 49a) following oral administration. Analgesic activity was assessed abdominal spasm test in the rat and mouse. Analgesic activity is also assessed using the tail clip test in the mouse, tail flick test in the rat, Randall-Selitto test in the rat and comparisons are made with a vehicle control group. Reference compounds ASA (acetylsalicylic acid) and morphine are also included for comparison.
The tail clip and tail flick test provide useful information about the central analgesic activity of the test article. The Randall-Selitto test provides information on the compound's ability to modify a hyperalgesic state and the abdominal spasm test provides information on the peripheral analgesic activity of the test article. The test article is administered by oral gavage, this being the intended clinical route of administration. The dose levels employed are expected to encompass the efficacy dose and provide an adequate safety margin.
All formulations were prepared on each day of dosing. The test article (HY-2901) was formulated in 0.25% (w/v) MC at the highest concentration required. Lower doses were obtained by serial dilution of the highest concentration using 0.25% (w/v) MC. The reference compound, acetylsalicylic acid, was formulated in 0.25% (w/v) MC at the required concentrations. Brewer's yeast was formulated in water for injection at the required concentration. Acetic acid was diluted with water for injection to provide the required concentration for administration.
An adequate number of male Crl:CD-I(ICR)BR mice and Wistar rats were obtained from Charles River (UK) Ltd., Margate, Kent. The mice were approximately 4 weeks of age and weigh between 18 and 22 g on arrival. The rats were approximately 5 weeks of age and weigh between 150 and 170 g on arrival. The age and weight of the animals at the start of the study was documented in the raw data and final report,
Each animal received a single administration of vehicle, test article or reference compound by oral gavage, using a constant dose volume […]. Individual dose volumes were based on individual body weights obtained on the day of dosing.
Forty-five minutes following oral administration each animal received a 1 mL intraperitoneal injection of 1% acetic acid. Animals were immediately placed into individual observation chambers and the number of abdominal spasms elicited over the subsequent 25-minute period was recorded.

[6] = 50 to 250 mg/kg once daily for 5 days

SMILES | percentage inhibition of specific binding (Adenosine, Non-selective) | percentage inhibition of specific binding [1] | inhibition at 1 µM [2] | percentage inhibition of specific binding (Sodium, Site 2) | inhibition at 1 µM (Angiotensin II, AT2) | inhibition at 1 µM [3] | inhibition at 1 µM (hERG) | half-life [4] | Tmax ([4]; after oral administration) | protein bound [5] | ataxia (Crl: CD(SD)IGS BR rats; [6]) | hypoactivity / apparent sleep (Crl: CD(SD)IGS BR rats; [6]) | Day 6 body weights (Crl: CD(SD)IGS BR rats; two 250 mg/kg rats, relative to other rats) | Group mean (=sd) number pf abdominal spasms recorded in a 25-minute period (Wistar rats; oral 3 mg/kg) | Number of abdominal spasms recorded in a 25-minute period, individual animal data (Wistar rats; oral 3 mg/kg, listed as HY-2901, 3 mg/kg) | Group mean (=sd) number pf abdominal spasms recorded in a 25-minute period (Wistar rats; oral 10 mg/kg) | Number of abdominal spasms recorded in a 25-minute period, individual animal data (Wistar rats; oral 10 mg/kg, listed as HY-2901, 10 mg/kg) | Group mean (=sd) number pf abdominal spasms recorded in a 25-minute period (Wistar rats; oral 30 mg/kg) | Number of abdominal spasms recorded in a 25-minute period, individual animal data (Wistar rats; oral 30 mg/kg, listed as HY-2901, 30 mg/kg)
CC(CC(=O)O)N1CCC(=C2c3ccc(F)cc3COc3ccccc32)CC1 (stereo not shown) [Compound 37] | 6.49% | 6.56% | -12.5% | −4.12% | 1.51% | 3.98% | -5.23% | – | – | – | – | – | – | – | – | – | – | – | –
CC(C)(CN1CCC(=C2c3ccc(F)cc3COc3ccccc32)CC1)C(=O)O [Compound 49a] | – | – | – | – | – | – | – | 4.4 h | 1.5 h | 75% | dose-response relationship was observed in the incidence and duration of ataxia | Hypoactivity was observed in all rats | slightly decreased | 31 ± 9.0 | 42 and 17 and 26 and 29 and 31 and 39 | 25 ± 16.4 | 57 and 23 and 20 and 24 and 19 and 9 | 17 ± 13.8 | 37 and 20 and 23 and 1 (2×) and 18
